Laboratory results from patent publication US6653529B2, “Use of the maize X112 mutant ahas 2 gene and imidazolinone herbicides for selection of transgenic monocots, maize, rice and wheat plants resistant to the imidazolinone herbicides” (BASF Aktiengesellschaft, priority 2000, dated 2003).

Columns and labels:
Format in all cases: in vivo
[1] = test system: transgenic rice Line 26; experiment: Response of rice plants to various herbicides, seed set in greenhouse; conditions: post-emergence, 1× g ai/ha: PURSUIT 62.5, CADRE 32, ARSENAL 24, RAPTOR 32, SCEPTER 125, ACCENT 35, CLASSIC 5, AC322,140 20, LONDAX 68
Text: (§1) A total of 9 herbicides, 5 imidazolinones, two rice herbicides and ACCENT® (nicosulfuron) and CLASSIC® (clorimuron-ethyl) were applied in this study. Materials and methods were basically the same as described above, except that instead of 6″ pots, flats with 18 (3″×3″ per cell) cells were used, and 10-12 seeds were planted to one 3″×3″ cell. Ten plants were maintained in one cell in the post-emergence application. Each herbicide was sprayed at 4 different rates, 1, 2, 4, and 6×, as either pre or post-emergence applications with three replications per treatment. The name and amount of herbicide applied in this experiment and information relevant to their commercial applications are listed in Table 3. For simplicity and convenience, the lowest concentration used is referred as 1× rate, 2, 4 and 6× rates can be calculated as multiples of 1×.
(§2) To monitor plant response to various herbicides, data on fresh weight was collected. For pre-emergence applications, all plants from one cell were harvested 32 days after spraying (36-day old plants) and weighed. Twenty-nine days after herbicide application, 5 plants (44-day old plants) from each cell in the post-emergence application, were cut and weighed individually. Mean fresh weight for each treatment was calculated over three replications. The remaining 5 plants were grown in the greenhouse to maturity at which time, panicles of 3 plants were collected, and number of filled seeds and number of total kernels were counted to determine percentage of seed set.

[2] = test system: untransformed Nt rice plants; experiment: as above; conditions: post-emergence, 1× g ai/ha: PURSUIT 62.5, CADRE 32, ARSENAL 24, RAPTOR 32, SCEPTER 125, ACCENT 35, CLASSIC 5, AC322,140 20, LONDAX 68
Text: as §1, §2

[3] = test system: transgenic rice Line 29; experiment: as above; conditions: post-emergence, 1× g ai/ha: PURSUIT 62.5, CADRE 32, ARSENAL 24, RAPTOR 32, SCEPTER 125, ACCENT 35, CLASSIC 5, AC322,140 20, LONDAX 68
Text: as §1, §2

[4] = test system: rice plants (transgenic Lines 26 and 29; Nt control); experiment: Greenhouse herbicide tests on rice
Text: We evaluated the response of transgenic rice to PURSUIT® imazethapyr application in the greenhouse. In this experiment, we included 2 transgenic lines and their untransformed counterpart (Nt). The transgenic lines, designated as Line 26 and 29, were T3 progeny derived from previously identified homozygous resistant transgenic plants containing the maize XI12 ahas2 gene driven by its own promoter. All seeds were pre-germinated in water for 2-3 days then grown in a planting mixture consisting of 1:1 soil and MetroMix 360 (The Scotts Company, Marysville, Ohio 43040) in 6-inch pots (2 seeds per pot) in the greenhouse and sprayed with PURSUIT® imazethapyr at 63, 125, or 250 g ai/ha. For post-emergence application, the plants were sprayed 15 days after seeding, at which time most plants had 3 leaves. For pre-emergence treatment, PURSUIT® imazethapyr was sprayed one day after seeding. Each treatment contained 20 plants and, and 3 replicates per treatment. One set of materials was not sprayed and used as control. The plants were grown in the greenhouse and harvested at maturity. The amount of PURSUIT® imazethapyr applied in this study (63, 125, or 250 g ai/ha) was close to 1, 2 or 4× field application rate for imi-resistant corn (refer to Table 3) since PURSUIT® imazethapyr is not currently labeled for use in rice fields. A custom designed belt sprayer was operated as described (Newhouse et al. 1992) for all herbicide applications. Five plants from each treatment were randomly chosen and individually measured for morphological traits. Means and standard deviations were calculated over three replications. Plant heights were measured from the base of the plant to the tip of the flag leaf 93 days after herbicide applications (DAH) and number of tillers per plant were counted 102-103 DAH. Data on number of panicles per plant and yield were collected after plants were harvested.
as §1, §2

SMILES	% seed-set ([1]; 1× rate) [%]	No. filled seeds/3 panicles ([1]; 1× rate)	Total No. of kernels/3 panicles ([1]; 1× rate)	% seed-set ([1]; 2× rate) [%]	No. filled seeds/3 panicles ([1]; 2× rate)	Total No. of kernels/3 panicles ([1]; 2× rate)	% seed-set ([1]; 4× rate) [%]	No. filled seeds/3 panicles ([1]; 4× rate)	Total No. of kernels/3 panicles ([1]; 4× rate)	% seed-set ([1]; 6× rate) [%]	No. filled seeds/3 panicles ([1]; 6× rate)	Total No. of kernels/3 panicles ([1]; 6× rate)	% seed-set ([2]; 1× rate) [%]	No. filled seeds/3 panicles ([2]; 1× rate)	Total No. of kernels/3 panicles ([2]; 1× rate)	% seed-set ([2]; 2× rate) [%]	No. filled seeds/3 panicles ([2]; 2× rate)	Total No. of kernels/3 panicles ([2]; 2× rate)	% seed-set ([2]; 4× rate) [%]	No. filled seeds/3 panicles ([2]; 4× rate)	also measured
CCOC(=O)c1ccccc1S(=O)(=O)NC(=O)Nc1nc(Cl)cc(OC)n1 [CLASSIC ®, chlorimuron-ethyl]	83	95	114	93	100	108	28	26	65	20	10	18	87	87	99	92	90	97	0	0	Total No. of kernels/3 panicles ([2]; 4× rate): 0; % seed-set ([2]; 6× rate): 0%; No. filled seeds/3 panicles ([2]; 6× rate): 0; Total No. of kernels/3 panicles ([2]; 6× rate): 0; % seed-set ([3]; 1× rate): 88%; No. filled seeds/3 panicles ([3]; 1× rate): 115; Total No. of kernels/3 panicles ([3]; 1× rate): 130; % seed-set ([3]; 2× rate): 85%; No. filled seeds/3 panicles ([3]; 2× rate): 112; Total No. of kernels/3 panicles ([3]; 2× rate): 132; % seed-set ([3]; 4× rate): 37%; No. filled seeds/3 panicles ([3]; 4× rate): 35; Total No. of kernels/3 panicles ([3]; 4× rate): 45; % seed-set ([3]; 6× rate): 4%; No. filled seeds/3 panicles ([3]; 6× rate): 5; Total No. of kernels/3 panicles ([3]; 6× rate): 14; effect on plant growth at 1× rates ([4]; post-emergence): greatly affected plant growth
COC(=O)c1ccccc1CS(=O)(=O)NC(=O)Nc1nc(OC)cc(OC)n1 [LONDAX ®, bensulfuron-methyl]	80	140	173	90	140	156	65	102	136	89	127	143	85	147	172	93	142	154	91	113	Total No. of kernels/3 panicles ([2]; 4× rate): 127; % seed-set ([2]; 6× rate): 96%; No. filled seeds/3 panicles ([2]; 6× rate): 109; Total No. of kernels/3 panicles ([2]; 6× rate): 114; % seed-set ([3]; 1× rate): 80%; No. filled seeds/3 panicles ([3]; 1× rate): 125; Total No. of kernels/3 panicles ([3]; 1× rate): 156; % seed-set ([3]; 2× rate): 90%; No. filled seeds/3 panicles ([3]; 2× rate): 133; Total No. of kernels/3 panicles ([3]; 2× rate): 148; % seed-set ([3]; 4× rate): 87%; No. filled seeds/3 panicles ([3]; 4× rate): 155; Total No. of kernels/3 panicles ([3]; 4× rate): 177; % seed-set ([3]; 6× rate): 86%; No. filled seeds/3 panicles ([3]; 6× rate): 150; Total No. of kernels/3 panicles ([3]; 6× rate): 175; effect on growth of all plants treated ([4]; transgenic and control plants): minimal effect
CC(C)C1(C)N=C(c2nc3ccccc3cc2C(=O)O)NC1=O (centres unmarked) [SCEPTER ®, imazaquin]	86	148	172	64	87	135	88	147	166	62	86	109	0	0	0	0	0	0	0	0	Total No. of kernels/3 panicles ([2]; 4× rate): 0; % seed-set ([2]; 6× rate): 0%; No. filled seeds/3 panicles ([2]; 6× rate): 0; Total No. of kernels/3 panicles ([2]; 6× rate): 0; % seed-set ([3]; 1× rate): 87%; No. filled seeds/3 panicles ([3]; 1× rate): 138; Total No. of kernels/3 panicles ([3]; 1× rate): 159; % seed-set ([3]; 2× rate): 86%; No. filled seeds/3 panicles ([3]; 2× rate): 143; Total No. of kernels/3 panicles ([3]; 2× rate): 165; % seed-set ([3]; 4× rate): 85%; No. filled seeds/3 panicles ([3]; 4× rate): 131; Total No. of kernels/3 panicles ([3]; 4× rate): 155; % seed-set ([3]; 6× rate): 88%; No. filled seeds/3 panicles ([3]; 6× rate): 139; Total No. of kernels/3 panicles ([3]; 6× rate): 159; average seed set in two transgenic lines ([4]; PURSUIT, RAPTOR, CADRE, SCEPTER at all rates tested, ARSENAL 1 to 2×): about 85%; rate at which growth of transgenic plants was slightly affected ([4]; post-emergence, fresh weight and visual observation): 6 ×; rate at which growth of both transgenic lines was affected ([4]; pre-emergence): ≥ 2 ×
